Like-named read-outs stand apart in the source and are kept apart here.
Columns and labels:
[1] = system: AdV4; assay: Plaque reduction antiviral IC50 assay in A549, AdV4; assay type: cell-based, adenovirus 4; details: Human mastadenovirus E
Experimental: (§1) The effectiveness of filociclovir to inhibit a number of adenovirus strains associated with conjunctivitis were tested in an in vitro assay. To determine the in vitro IC50 concentrations, i.e., the concentration of filociclovir that inhibits adenovirus plaque formation by 50%, filociclovir and cidofovir (CDV) were tested against a panel of 7 ocular types of adenovirus.
(§2) 42 A549 24-well multiplates (1 per each drug and each virus strain) were prepared. 7 adenovirus serotypes were tested at a time. Virus dilutions from known titer of stock viruses (approx. 100 PFU/0.1 ml) were prepared with AdV3 L, AdV4 H, AdV5 M, AdV7a J, AdV8 E, AdV 19/64 K, and AdV37 ATCC. 0.1 ml (containing approx. 100 PFU) of each of the 7 viruses were plated onto all 24 wells of an A549 multiplate and incubated at 37° C. in a 5% CO2 water-vapor atmosphere for 3 hours.
(§3) Dilutions of filociclovir and cidofovir were prepared at 400, 40, 4.0, 0.4, 0.04, and 0.004 μM in 2× nutrient tissue culture media, following the dilution protocol: 7.5 ml of each of filociclovir and cidofovir dilution was added to a tube and 22.5 ml of methylcellulose in outgrowth medium (OG) was then added to each tube. 1 ml of each filociclovir and cidofovir dilutions was added to an additional 15 ml tube and 3 ml of OG was added to each tube. This was the overlay for the Adv8 plates. Normal methylcellulose overlay medium without any drug was used for the control wells for each plate.
(§4) For each virus plate, 3 wells were overlaid with each of the 6 final filociclovir and cidofovir concentrations (100, 10, 1.0, 0.1, 0.01, and 0.001 μM) and 6 wells with the control media. Plates were incubated at 37° C. in a 5% CO2 water-vapor atmosphere until plaques were visible. When plaques became visible, plates were stained with gentian violet and plaques were counted at 25λ using a dissecting microscope. The IC50 concentrations were determined from Fitted Line Plot regression analysis using Minitab. All assays were performed in triplicate.

[2] = system: AdV7a; assay: Plaque reduction antiviral IC50 assay in A549, AdV7a; assay type: cell-based, adenovirus 7a; details: unidentified adenovirus
Experimental: as §1, §2, §3, §4

[3] = system: AdV5; assay: Adenovirus/NZW rabbit ocular model; assay type: in vivo, New Zealand White (NZW) rabbit
Experimental: The ability of filociclovir to inhibit adenovirus-related conjunctivitis was tested in a New Zealand White (NZW) rabbit ocular model.
20 NZW rabbits (1.1-1.4 kg) were given general anesthesia with ketamine & xylazine, topical anesthesia with proparacaine, and corneal scarification (12 cross-hatched strokes of a #25 needle) followed by inoculation in both eyes with 50 μl of […] of AdV5 M (6.0×10^8 PFU/ml). Eyes were closed and gently rubbed for 5 seconds to ensure contact of the virus on all ocular surfaces. All rabbits were treated with analgesia in the form of intramuscular injections of ketoprofen (1.5 mg/kg).
Beginning 2 hours after inoculation, all eyes were cultured for virus. Following topical anesthesia with proparacaine, a single cotton-tipped swab was placed into the lower fornix of each eye, rolled over the cornea into the upper fornix to recover adenovirus from the tear film and corneal and conjunctival surfaces. The swabs from each eye were placed individually into tubes containing 1 ml of outgrowth media and were frozen at −80° C. pending plaque assay.
On Day 1, the rabbits were divided into 4 treatment groups for drug administration as set forth in the chart below. The four treatment groups were 0.5% Filociclovir; 0.1% Filociclovir; 0.5% cidofovir; and the negative vehicle control (10% 2-Hydroxpropyl)-β-cyclodextrin, 0.2% cremophore).
Treatments began on Day 1 and drops were administered with at least a 2-hour interval between drops. The eyes of each rabbit were cultured for virus on days 1, 3, 4, 5, 7, 9, 11, and 14 post-inoculation (PI) at least 1 hour after the final drop. At various times during the course of the experiment, AdV5 titers were determined on A549 cell monolayers using a standard plaque assay. The ocular cultures to be titered were thawed, diluted (1:10) and inoculated onto A549 monolayers. The virus was adsorbed for 3 hours. Following adsorption, 1 ml of media plus 0.5% methylcellulose was added to each well, and the plates were incubated at 37° C. in a 5% CO2-water vapor atmosphere. After 7 days incubation, the cells were stained with 0.5% gentian violet, and the numbers of plaques were counted under a dissecting microscope (25λ). The viral titers were then calculated and expressed as plaque-forming units per milliliter (PFU/ml). The data were analyzed statistically using True Epistat and/or Minitab statistical software. Outcome measures included Daily AdV5-Positive Cultures per Total (FIG. 9), Duration of Shedding (FIG. 10) and Daily Viral Titers (FIG. 11). Significance was established at the p≤0.05 confidence level.

[4] = system: AdV 4; assay: Antiviral EC50 against AdV 4 (method not given); assay type: cell-based, adenovirus 4; details: Human mastadenovirus E; AdV 4, summary table
[5] = system: CMV; details: β Herpesvirus, cited from earlier work
[6] = system: VZV; details: α Herpesvirus, cited from earlier work
[7] = system: Adenovirus 5 (AdV5); details: AdV 5‡, summary table; cited from earlier work
[8] = 0.5% topical 2 times daily for 7 days, compared with Vehicle control
[9] = 0.1% topical 4 times daily for 10 days, compared with Vehicle control
[10] = 0.5% filociclovir compared with 0.5% cidofovir
[11] = 0.5% filociclovir compared with the 0.1% filociclovir group
[12] = 0.5% topical 4 times daily for 10 days, compared with Vehicle control

Question: With Nc1ccn(C[C@@H](CO)OCP(=O)(O)O)c(=O)n1 [CDV, cidofovir, reference compound] as the compound, how does the IC50 ([1]; read-out: Mean IC50) read?
Answer: 8710 nM

Question: And the IC50 ([1]; read-out: Median IC50)?
Answer: 9430 nM

Question: What about the IC50 ([2]; read-out: Mean IC50) of the same compound?
Answer: 1810 nM

Question: And the IC50 ([2]; read-out: Median IC50)?
Answer: 617 nM

Question: What about the “adenovirus positive cultures per total (FIG. 9)” value [3, 8] of the same compound?
Answer: fewer number of adenovirus positive cultures per total on Days 7, 9, and 11

Question: And the “adenovirus titers (FIG. 11)” value [3, 8]?
Answer: significantly lower adenovirus titers on Days 3, 4, 5, 7, 9, and 11

Question: And the “duration of shedding (FIG. 10)” value [3, 8]?
Answer: shorter duration of shedding

Question: Which EC50 [4] does the source give for Nc1nc2c(ncn2/C=C2/CC2(CO)CO)c(=O)[nH]1 [Filociclovir, 2-amino-9-{(Z)-[2,2-bis(hydroxymethyl)cyclopropylidene]methyl}-3,9-dihydro-6H-purin-6-one] here?
Answer: 2400 nM

Question: What about the IC50 ([1]; read-out: Mean IC50) of the same compound?
Answer: 4310 nM

Question: And the IC50 ([1]; read-out: Median IC50)?
Answer: 4240 nM

Question: What about the IC50 ([2]; read-out: Mean IC50) of the same compound?
Answer: 2120 nM

Question: And the IC50 ([2]; read-out: Median IC50)?
Answer: 769 nM

Question: And the “adenovirus positive cultures per total (FIG. 9)” value [3, 9]?
Answer: fewer number of adenovirus positive cultures per total on Days 7, 9, and 11

Question: What about the “adenovirus titers (FIG. 11)” value [3, 9] of the same compound?
Answer: significantly lower adenovirus titers on Days 1, 3, 4, 5, 7, 9, and 11

Question: What about the “duration of shedding (FIG. 10)” value [3, 9] of the same compound?
Answer: shorter duration of shedding

Question: And the “adenovirus positive cultures per total” value [3, 10]?
Answer: fewer number of adenovirus positive cultures per total on Day 4

Question: What about the adenovirus titers [3, 10] of the same compound?
Answer: significantly lower adenovirus titers on Days 1, 3, 4, and 5

Question: And the “adenovirus positive cultures per total (FIG. 9)” value [3, 11]?
Answer: fewer number of adenovirus positive cultures per total on Day 4

Question: What about the “adenovirus titers (FIG. 11)” value [3, 11] of the same compound?
Answer: significantly lower adenovirus titers on Days 3, 4, and 5

Question: What about the “adenovirus positive cultures per total (FIG. 9)” value [3, 12] of the same compound?
Answer: fewer number of adenovirus positive cultures per total on Days 4, 5, 7, 9, and 11

Question: What about the “adenovirus titers (FIG. 11)” value [3, 12] of the same compound?
Answer: significantly lower adenovirus titers on Days 1, 3, 4, 5, 7, 9, and 11

Question: And the “duration of adenovirus shedding (FIG. 10)” value [3, 12]?
Answer: shorter duration of adenovirus shedding

Question: And the EC50 ([5]; listed as filociclovir)?
Answer: ≤ 10000 nM

Question: And the EC50 [5]?
Answer: 1000 ± 600 nM

Question: What about the EC50 ([6]; listed as filociclovir) of the same compound?
Answer: ≤ 10000 nM

Question: And the EC50 [6]?
Answer: 1500 ± 1600 nM

Question: And the EC50 [7]?
Answer: 2200 ± 400 nM

From patent publication US20220370464A1, “COMPOSITIONS AND METHODS OF TREATING OR PREVENTING OCULAR INFECTIONS WITH FILOCICLOVIR” (Microbiotix, Inc., priority 2019, published 2022)
